From the NIST ThermoML archive (doi:10.1021/je050402s)

Test: xn = mol fraction of the nth substance listed
Conditions: 100.5 kPa, Liquid; for viscosity: Capillary tube (Ostwald / Ubbelohde) method

CC(=O)OCc1ccccc1 [benzyl ethanoate] + CCO
Conditions | mass density, 288.15 K [kg/m3] | mass density, 298.15 K [kg/m3] | mass density, 308.15 K [kg/m3] | mass density, 318.15 K [kg/m3] | viscosity, 288.15 K [mPa·s] | viscosity, 298.15 K [mPa·s] | viscosity, 308.15 K [mPa·s] | viscosity, 318.15 K [mPa·s]
x1 = 0.05 | 825.52 | 816.73 | 807.83 | 798.78 | 1.317 | 1.089 | 0.91 | 0.766
x1 = 0.1 | 852.86 | 843.91 | 834.85 | 825.63 | 1.328 | 1.098 | 0.92 | 0.779
x1 = 0.15 | 876.56 | 867.47 | 858.28 | 848.94 | 1.357 | 1.123 | 0.942 | 0.796
x1 = 0.2 | 897.58 | 888.4 | 879.1 | 869.66 | 1.393 | 1.154 | 0.967 | 0.821
x1 = 0.25 | 916.18 | 906.92 | 897.57 | 888.07 | 1.439 | 1.191 | 0.998 | 0.846
x1 = 0.3 | 932.86 | 923.54 | 914.12 | 904.56 | 1.489 | 1.231 | 1.031 | 0.875
x1 = 0.35 | 947.82 | 938.44 | 928.98 | 919.38 | 1.543 | 1.274 | 1.067 | 0.906
x1 = 0.4 | 961.41 | 952 | 942.5 | 932.88 | 1.601 | 1.319 | 1.104 | 0.937
x1 = 0.45 | 973.74 | 964.29 | 954.76 | 945.12 | 1.661 | 1.365 | 1.142 | 0.971
x1 = 0.5 | 984.92 | 975.44 | 965.91 | 956.27 | 1.724 | 1.413 | 1.182 | 1.005
x1 = 0.55 | 995.2 | 985.72 | 976.17 | 966.52 | 1.789 | 1.465 | 1.223 | 1.04
x1 = 0.6 | 1004.68 | 995.21 | 985.66 | 976.03 | 1.859 | 1.518 | 1.268 | 1.077
x1 = 0.65 | 1013.4 | 1003.92 | 994.38 | 984.76 | 1.929 | 1.571 | 1.312 | 1.116
x1 = 0.7 | 1021.55 | 1012.1 | 1002.56 | 992.96 | 2.003 | 1.629 | 1.36 | 1.156
x1 = 0.75 | 1029.05 | 1019.58 | 1010.07 | 1000.51 | 2.081 | 1.691 | 1.409 | 1.197
x1 = 0.8 | 1036.05 | 1026.61 | 1017.13 | 1007.6 | 2.163 | 1.76 | 1.463 | 1.241
x1 = 0.85 | 1042.59 | 1033.16 | 1023.71 | 1014.22 | 2.249 | 1.83 | 1.524 | 1.289
x1 = 0.9 | 1048.78 | 1039.39 | 1029.98 | 1020.53 | 2.339 | 1.906 | 1.588 | 1.341
x1 = 0.95 | 1054.57 | 1045.21 | 1035.84 | 1026.44 | 2.44 | 1.987 | 1.652 | 1.392
x1 = 1 | 1060.11 | 1050.75 | 1041.39 | 1032.03 | 2.53 | 2.056 | 1.703 | 1.432
